From US5444082A, “3,9-disubstituted-spiro(5.5)undecanes active on the cardiovascular system, process for their preparation and pharmaceutical composition containing same” (Sigma-Tau Industrie Farmaceutiche Riunite S.p.A., priority 1992, dated 1995)

Assays:
Na^+,K^+ -ATPase [1] = target: T1, Na^+,K^+ -ATPase (Homo sapiens, UniProt P05023); assay: inhibition of the activity of the purified Na+,K+-ATPase, measured as % of hydrolysis of 32P-ATP; format: biochemical; details: read-out: Inhibitory Activity log IC50 (converted)
T1 construct: receptor purified according to Jorgensen (Jorgensen P., BBA, 1974,356, 36); from tissue
Description: (§1) To test the affinity for the receptor site of the Na^+,K^+ -ATPase and the agonist or antagonist activity on the enzyme, the following tests are used: a) displacement of the specific 3-Houabain binding from the Na^+,K^+ -ATPase receptor purified according to Jorgensen (Jorgensen P., BBA, 1974,356, 36) and Erdmann (L. Brown and E. Erdmann., Arzneim. Forsh., 1984, 34 (II), 1314); b) inhibition of the activity of the purified Na^+,K^+ -ATPase measured as % of hydrolysis of ^32 P-ATP in presence and in absence of the tested compound (F. Noel and Godfraind., Biochem. Pharmacol., 1984, 33, 47).

Na^+,K^+ -ATPase [2] = target: T1, Na^+,K^+ -ATPase; assay: displacement of the specific 3H-ouabain binding from the purified Na+,K+-ATPase receptor; details: read-out: Binding ^3 H-Ouab. Displacement log. IC50 (converted)
Description: as §1

C1CCN(CCOC2CCC3(CCC(CCC4CCOC4)CC3)CC2)C1 (racemic) [Comp. 1-i, (RS)-9-(2-(N-Pyrrolidinyl)ethoxy)-3-(2-(3-(RS)-tetra-hydrofuryl)ethyl)-spiro[5.5]undecane]
IC50 (Na^+,K^+ -ATPase [1]): 100 µM | IC50 (Na^+,K^+ -ATPase [2]): 100 µM

c1cncc(CCC2CCC3(CC2)CCC(OCCN2CCCC2)CC3)c1 (stereo not shown) [Comp. I-h, 9-(2-(N-Pyrrolidinyl)ethoxy)-3-(2-(3-pyridyl)ethyl)-spiro[5.5]undecane]
IC50 (Na^+,K^+ -ATPase [1]): 100 µM | IC50 (Na^+,K^+ -ATPase [2]): 25.1 µM

c1cc(CC2CCC3(CCC(CSCCN4CCCC4)CC3)CC2)co1 (stereo not shown) [Comp. I-bf, 9-(2-(N-Pyrrolidinyl)ethyl-thiomethyl)-3-(3-furyl)methyl-spiro[5.5]undecane]
IC50 (Na^+,K^+ -ATPase [1]): 100 µM | IC50 (Na^+,K^+ -ATPase [2]): 39.8 µM

c1cc(CCC2CCC3(CC2)CCC(OCCCN2CCCC2)CC3)co1 (stereo not shown) [Comp. I-m]
IC50 (Na^+,K^+ -ATPase [1]): 50.1 µM | IC50 (Na^+,K^+ -ATPase [2]): 31.6 µM

NCCSCC1CCC2(CC1)CCC(Cc1ccoc1)CC2 (stereo not shown) [Comp. 1-be, 9-(2-Aminoethylthiomethyl)-3-(3-furyl)methyl-spiro[5.5]undecane]
IC50 (Na^+,K^+ -ATPase [1]): 15.8 µM | IC50 (Na^+,K^+ -ATPase [2]): 10 µM

OC1(CCc2ccoc2)CCC2(CCC(OCCN3CCCC3)CC2)CC1 (stereo not shown) [Comp. I-x, 9.(2-(N-pyrrolidinyl)ethoxy)-3-(2-(3-furyl)ethyl)-3-hydroxy-spiro[5.5]undecane]
IC50 (Na^+,K^+ -ATPase [1]): 100 µM | IC50 (Na^+,K^+ -ATPase [2]): 100 µM

N=C(N)NN=C1CCC2(CC1)CCC(CO)CC2 (stereo not shown) [Comp. I-ay, 9-Hydroxymethyl-3-guanidinoimino-spiro[5.5]undecane]
IC50 (Na^+,K^+ -ATPase [1]): 100 µM | IC50 (Na^+,K^+ -ATPase [2]): 25.1 µM

c1cc(CCC2CCC3(CC2)CCC(OCCN2CCCC2)CC3)co1 (stereo not shown) [Comp. I-g, 9-(2-(N-Pyrrolidinyl)ethoxy)-3-(2-(3-furyl)ethyl)-spiro[5.5]undecane]
IC50 (Na^+,K^+ -ATPase [1]): 15.8 µM | IC50 (Na^+,K^+ -ATPase [2]): 12.6 µM

OC1(Cc2ccoc2)CCC2(CCC(COCCN3CCCC3)CC2)CC1 (stereo not shown) [Comp. I-ab, 9-(2-(N-Pyrrolidinyl)ethoxy)methyl-3-(3-furyl)meth-yl-3-hydroxy-spiro[5.5]undecane]
IC50 (Na^+,K^+ -ATPase [1]): 15.8 µM | IC50 (Na^+,K^+ -ATPase [2]): 15.8 µM

OC(COC1CCC2(CCC(CCc3ccoc3)CC2)CC1)CN1CCCC1 (stereo not shown) [Comp. I-t, 9-(3-(N-Pyrrolidinyl)-2-hydroxypropoxy)-3-(2-(3-furyl)ethyl)-spiro[5.5]undecane]
IC50 (Na^+,K^+ -ATPase [1]): 50.1 µM | IC50 (Na^+,K^+ -ATPase [2]): 100 µM

C(=CC1CCC2(CC1)CCC(OCCN1CCCC1)CC2)c1ccoc1 (mixture of isomers) [Comp. I-a, (EZ)-9-(2(N-Pyrrolidinyl)ethoxy)-3-(2-(3-furyl)vinyl)-spiro[5.5]undecane]
IC50 (Na^+,K^+ -ATPase [1]): 25.1 µM | IC50 (Na^+,K^+ -ATPase [2]): 79.4 µM

O=C1C=C(CCC2CCC3(CC2)CCC(OCCN2CCCC2)CC3)CO1 (stereo not shown) [Comp. I-bh, 9-(2-(N-Pyrrolidinyl)ethoxy)-3-(2-(2-oxo-[5H]-4-furyl)-ethyl)-spiro[5.5]undecane]
IC50 (Na^+,K^+ -ATPase [1]): 100 µM | IC50 (Na^+,K^+ -ATPase [2]): 63.1 µM

N=C(N)NN=CC1CCC2(CCC(O)CC2)CC1 (stereo not shown) [Comp. I-az, 9-Hydroxy-3-guanidinoiminomethyl-spirol[5.5]undecane]
IC50 (Na^+,K^+ -ATPase [1]): 63.1 µM | IC50 (Na^+,K^+ -ATPase [2]): 15.8 µM

c1cc(CC2CCC3(CCC(COCCCN4CCCC4)CC3)CC2)co1 (stereo not shown) [Comp. I-r, 9-(3-(N-Pyrrolidinyl)propoxy)methyl-3-(3-furyl)-methyl-spiro[5.5]undecane]
IC50 (Na^+,K^+ -ATPase [1]): 12.6 µM | IC50 (Na^+,K^+ -ATPase [2]): 31.6 µM

O=C1OCC=C1CCC1CCC2(CC1)CCC(OCCN1CCCC1)CC2 (stereo not shown) [Comp. 1-bg, 9-(2-(N-pyrrolidinyl)ethoxy)-3-(2-(2-oxo-[5H]-3-furyl)ethyl)-spiro[5.5]undecane]
IC50 (Na^+,K^+ -ATPase [1]): 100 µM | IC50 (Na^+,K^+ -ATPase [2]): 100 µM

NC(CO)COC1CCC2(CCC(CCc3ccoc3)CC2)CC1 (stereo not shown) [Comp. I-u, 9-(2-Amino-3-hydroxypropoxy)-3-(2-(3-furyl)ethyl)-spiro[5.5]undecane]
IC50 (Na^+,K^+ -ATPase [1]): 50.1 µM | IC50 (Na^+,K^+ -ATPase [2]): 50.1 µM

c1cc(CC2CCC3(CCC(COCCN4CCCC4)CC3)CC2)co1 (stereo not shown) [Comp. I-j, 9-(2-(N-Pyrrolidinyl)ethoxy)methyl-3-(3-furyl)methyl-spiro[5.5]undecane]
IC50 (Na^+,K^+ -ATPase [1]): 50.1 µM | IC50 (Na^+,K^+ -ATPase [2]): 7.94 µM
